Experiments:
Assay type in all cases: cell-based, human
[1] = test system: breast cancer cell line ER+/PR+/HER2+ (BT474); assay: MTT proliferation, breast cancer cell line ER+/PR+/HER2+; settings: 48 hours
Experimental: (§1) All cells were cultured in wells under vendor-recommended conditions and exposed to different concentrations of aprepitant for 48 hours. In each case a group of wells of cells were used to which no treatment was applied and which were considered as controls. At 48 hours the number of cells was measured. To measure cell viability, the cytotoxicity of drugs in culture was evaluated using the 3-(4,5-Dimethyl-2-thiazolyl)-2,5-diphenyl-2H-tetrazolium bromide (MTT) reduction assay. This assay assesses cell viability through the indirect measurement of the activity of reductases that convert yellow soluble MTT into purple insoluble formazan salts. As MTT can only be reduced when these enzymes are active, the reaction is used as an indicator of the cell metabolic competence and, therefore, of viability. A variable number of cells (depending on the cell line) were seeded in 96 multi-well plates and grown during 24 hours. The following day, the culture medium was aspirated and fresh culture medium with the drug dissolved was added to the wells. After 24 hours or 48 hours cell viability was measurement by adding 10 μl of a 5 mg/ml MTT solution (M5655; Sigma-Aldrich) and 100 μl of HCl 0.01M-SDS 10% solution 4 hours later. After 24 hours, the absorbance was measured at 595 nm, using a multi-well plate reader (iMark, Bio-rad). Each condition was tested 5 times, obtaining 5 values of absorbance. All sample measurements were corrected using the blank (culture medium without cells) mean absorbance value, and normalized to positive control to determinate relative cell viability for each condition at 24 and 48 hours.

[2] = test system: lung cancer cell line with molecular profile EGFR+/ALK−/ROS1− (HCC4006); assay: MTT proliferation, NSCLC cell line with EGFR+/ALK−/ROS1− profile; settings: 48 hours
Source text: (§2) EGFR, ALK and ROS1 are key molecular factors that may be used to determine pathological classification, prognosis, therapeutics and behaviour in patients with lung cancer. EGFR, ALK and ROS1 are biomarkers routinely analysed in the clinical practice of the management of patients with NSCLC. NSCLC with molecular profile EGFR-/ALK-/ROS1- presents a better response to treatment with the NK1 inhibitor aprepitant, compared to lung cancer with different profiles (in particular, EGFR+/ALK-/ROS1- and EGFR-/ALK+/ROS1-, in which EGFR and ALK respectively contain mutations relative to their wild type gene). Commercial lines of lung cancer were used as shown in Table 2 together with their molecular profile. The molecular profile of the cancer cell lines was determined by sequencing and can be consulted in the Cancer Cell Line Encyclopaedia database of public access available at the url: https://portals.broadinstitute.org/ccle All cells were cultured in wells under vendor-recommended conditions and exposed to different concentrations of aprepitant for 48 hours. In each case a group of wells of cells were used to which no treatment was applied and which were considered as controls. At 48 hours the number of cells was measured. Eight cell lines of human were used for the study of NK1 inhibitors (Table 3). All of them were maintained in culture in their respective culture media (Gibco,Thermo Fisher Scientific) supplemented with 10% foetal bovine serum (FBS) (Gibco, Thermo Fisher Scientific), 2 mM L-Glutamine (Gln) (Sigma-Aldrich, Merk), and […] and […] Gibco, Thermo Fisher Scientific) in a humidified incubator at 37° C. and 5% CO2. Cell culture media used are Dulbecco's Modified Eagle Medium (DMEM), and RPMI Medium 1640 (RPMI-1640). To measure cell viability, the cytotoxicity of drugs in culture was evaluated using the 3-(4,5-Dimethyl-2-thiazolyl)-2,5-diphenyl-2H-tetrazolium bromide (MTT) reduction assay. This assay assesses cell viability through the indirect measurement of the activity of reductases that convert yellow soluble MTT into purple insoluble formazan salts. As MTT can only be reduced when these enzymes are active, the reaction is used as an indicator of the cell metabolic competence and, therefore, of viability. A variable number of cells (depending on the cell line) were seeded in 96 multi-well plates and grown during 24 hours. The following day, the culture medium was aspirated and fresh culture medium with the drug dissolved was added to the wells. After 24 hours or 48 hours cell viability was measurement by adding 10 μl of a 5 mg/ml MTT solution (M5655; Sigma-Aldrich) and 100 μl of HCl 0.01M-SDS 10% solution 4 hours later. After 24 hours, the absorbance was measured at 595 nm, using a multi-well plate reader (iMark, Bio-rad). Each condition was tested 5 times, obtaining 5 values of absorbance. All sample measurements were corrected using the blank (culture medium without cells) mean absorbance value, and normalized to positive control to determinate relative cell viability for each condition at 24 and 48 hours.

[3] = test system: lung cancer cell lines with molecular profile EGFR−/ALK−/ROS1− (A549, H358, H441, H460, H520); assay: MTT proliferation, NSCLC cell lines with EGFR−/ALK−/ROS1− profile; settings: for Mean proliferation: 48 hours
Source text: as §2

[4] = test system: A549; assay: MTT proliferation, A549; settings: 48 hours
Source text: as §2

[5] = test system: H520; assay: MTT proliferation, H520; settings: 48 hours
Source text: as §2

[6] = test system: breast cancer cell line ER−/PR−/HER2+ (SkBr3); assay: MTT proliferation, breast cancer cell line ER−/PR−/HER2+; settings: 48 hours
Experimental: as §1

In the case of `C[C@@H](O[C@H]1OCCN(Cc2nc(=O)[nH][nH]2)[C@H]1c1ccc(F)cc1)c1cc(C(F)(F)F)cc(C(F)(F)F)c1` [Aprepitant], the Mean proliferation ([1]; aprepitant 0.3 μM) was 100.88, the Mean proliferation ([1]; aprepitant 1 μM) was 101.83 and the Mean proliferation ([1]; aprepitant 3 μM) was 91.36. For the same molecule, the Mean proliferation ([1]; aprepitant 10 μM) was 85.45, the Mean proliferation ([1]; aprepitant 20 μM) was 80.23 and the Mean proliferation ([1]; aprepitant 30 μM) was 57.51. The Mean proliferation ([1]; aprepitant 40 μM) was 43.65, the Mean proliferation ([1]; aprepitant 50 μM) was 23.8 and the Mean proliferation ([1]; aprepitant 60 μM) was 9.29. The Mean proliferation ([2]; aprepitant 1 μM) was 101.53, the Mean proliferation ([2]; aprepitant 3 μM) was 99.73 and the Mean proliferation ([2]; aprepitant 5 μM) was 96.4. For the same molecule, the Mean proliferation ([2]; aprepitant 10 μM) was 89.14, the Mean proliferation ([2]; aprepitant 20 μM) was 69.95 and the Mean proliferation ([2]; aprepitant 30 μM) was 54.9. For the same molecule, the Mean proliferation ([2]; aprepitant 40 μM) was 38.12, the Mean proliferation ([2]; aprepitant 50 μM) was 24.82 and the Mean proliferation ([2]; aprepitant 60 μM) was 14.95. The inhibition at 5 µM ([3]; Homo sapiens, concentration of 5 μM, in most cell lines (FIG. 3)) was about 20%, the inhibition at 20 µM ([3]; Homo sapiens, concentration of 20 μM (FIG. 3), read-out: growth inhibition) was 60% and the Mean proliferation ([3]; aprepitant 1 μM) was 98.09. The Mean proliferation ([3]; aprepitant 3 μM) was 94.71, the Mean proliferation ([3]; aprepitant 5 μM) was 72.82 and the Mean proliferation ([3]; aprepitant 10 μM) was 59.95. It also gave a Mean proliferation ([3]; aprepitant 20 μM) of 42.37, a Mean proliferation ([3]; aprepitant 30 μM) of 30.66 and a Mean proliferation ([3]; aprepitant 40 μM) of 18.72. For the same molecule, the Mean proliferation ([3]; aprepitant 50 μM) was 4.05, the Mean proliferation ([3]; aprepitant 60 μM) was 4.40 and the “proliferation compared to control” value ([3]; concentration of 5 μM, in most cell lines (FIG. 3)) was 80%. For the same molecule, the “response to treatment versus EGFR+/ALK−/ROS1− and EGFR−/ALK+/ROS1− profiles” value ([3]; in vitro, Table 4 and FIG. 2) was “clearly improved response”, the Mean proliferation ([4]; aprepitant 1 μM) was 96.56 and the Mean proliferation ([4]; aprepitant 3 μM) was 94.80. It also gave a Mean proliferation ([4]; aprepitant 5 μM) of 64.40, a Mean proliferation ([4]; aprepitant 10 μM) of 52.17 and a Mean proliferation ([4]; aprepitant 20 μM) of 40.48. It also gave a Mean proliferation ([4]; aprepitant 30 μM) of 35.59, a Mean proliferation ([4]; aprepitant 40 μM) of 21.55 and a Mean proliferation ([4]; aprepitant 50 μM) of 9.17. The Mean proliferation ([4]; aprepitant 60 μM) was 11.36, the Mean proliferation ([5]; aprepitant 1 μM) was 100.27 and the Mean proliferation ([5]; aprepitant 3 μM) was 98.27. It also gave a Mean proliferation ([5]; aprepitant 5 μM) of 80.08, a Mean proliferation ([5]; aprepitant 10 μM) of 66.40 and a Mean proliferation ([5]; aprepitant 20 μM) of 43.07. It also gave a Mean proliferation ([5]; aprepitant 30 μM) of 29.80, a Mean proliferation ([5]; aprepitant 40 μM) of 9.59 and a Mean proliferation ([5]; aprepitant 50 μM) of 5.78. For the same molecule, the Mean proliferation ([5]; aprepitant 60 μM) was −1.07, the Mean proliferation ([6]; aprepitant 0.3 μM) was 99.8 and the Mean proliferation ([6]; aprepitant 1 μM) was 100.23. The Mean proliferation ([6]; aprepitant 3 μM) was 95.65, the Mean proliferation ([6]; aprepitant 10 μM) was 81.8 and the Mean proliferation ([6]; aprepitant 20 μM) was 65.97. For the same molecule, the Mean proliferation ([6]; aprepitant 30 μM) was 45.14, the Mean proliferation ([6]; aprepitant 40 μM) was 32.62 and the Mean proliferation ([6]; aprepitant 50 μM) was 23.78. For the same molecule, the Mean proliferation ([6]; aprepitant 60 μM) was 12.87.

Source: patent publication US20240082273A1, “NEUROKININ INHIBITORS SUCH AS APREPITANT FOR TREATING NON SMALL CELL LUNG CARCINOMA OR BREAST CANCER WITHOUT MUTATIONS” (priority 2020, published 2024)
